Test results reported in patent US8440837B2, “2-substituted-ethynylthiazole derivatives and uses of same” (H. Lundbeck A/S, priority 2009, dated 2013).
pEC50: −log10 of the molar value.

Target: human metabotropic glutamate receptor 5 (hmGluR5) (UniProt P31424)
Test: Calcium mobilization (FLIPR) assay, positive allosteric modulation of the EC20 glutamate response
Format: cell-based
Settings: HEK 293 cells; for maximum modulation (Emax): EC20 glutamate response; for pEC50: increase in EC20 glutamate response
Method: The cDNA for human metabotropic glutamate receptor 5 (hmGluR5) was a generous gift from S. Nakanishi (Kyoto University, Kyoto, Japan). The […] was stably expressed in a HEK 293 cell line and grown in Dulbecco's Modified Eagle Medium (DMEM) (Invitrogen, Carlsbad, Calif.) with supplements (10% bovine calf serum, 4 mM glutamine, 100 units/mL penicillin, 100 μg/mL streptomycin and […]) at 37° C., 5% CO2. Twenty-four hours prior to assay, cells were seeded into 384-well black wall microtiter plates coated with poly-D-lysine. Just prior to assay, media was aspirated and cells dye-loaded (25 μL/well) with 3 μM Fluo-4/0.01% pluronic acid in assay buffer (Hank's Balanced Saline Solution (HBSS)): 150 mM NaCl, 5 mM KCl, 1 mM CaCl2, 1 mM MgCl2, plus 20 mM N-2-Hydroxyethylpiperazine-N′-2-ethanesulfonic acid (HEPES), pH 7.4, 0.1% bovine serum albumin (BSA) and 2.5 mM probenicid) for 1 hour in 5% CO2 at 37° C. After excess dye was discarded, cells were washed in assay buffer and layered with a final volume equal to 30 μL/well. Basal fluorescence is monitored in a fluorometric imaging plate reader (FLIPR) (Molecular Devices, Sunnyvale, Calif.) with an excitation wavelength of 488 nm and an emission range of 500 to 560 nm. Laser excitation energy was adjusted so that basal fluorescence readings were approximately 10,000 relative fluorescent units. Cells were stimulated with an EC20 or an EC80 concentration of glutamate in the presence of a compound to be tested, both diluted in assay buffer, and relative fluorescent units were measured at defined intervals (exposure=0.6 sec) over a 3 min period at room temperature. Basal readings derived from negative controls were subtracted from all samples. Maximum change in fluorescence was calculated for each well. Concentration-response curves derived from the maximum change in fluorescence were analyzed by nonlinear regression (Hill equation).
A silent allosteric modulator (SAM) can be identified by using a combination of both the calcium mobilization assay data and the radioligand binding data. As used herein, the term “silent allosteric modulator” refers to a ligand that binds to an allosteric site of the receptor but has no measurable intrinsic efficacy.

maximum modulation (Emax) [%]	pEC50	SMILES
91	7.64	Cc1nc(C#Cc2ccccc2)sc1C(=O)N1CCC(C)CC1 [Example 14, (4-Methyl-2-phenylethynyl-thiazol-5-yl)-(4-methyl-piperidin-1-yl)-methanone]
110	9.15	CC1CCN(C(=O)c2cnc(C#Cc3cccc(F)c3)s2)CC1 [Example 20]
50	7.26	Cc1cccc(C#Cc2ncc(C(=O)N3CCC(O)CC3)s2)c1 [Example 25, (4-Hydroxy-piperidin-1-yl)-(2-m-tolylethynyl-thiazol-5-yl)-methanone]
100	5.62	O=C(c1cnc(C#Cc2ccc(F)cc2)s1)N1CCC(O)CC1 [Example 29, [2-(4-Fluoro-phenylethynyl)-thiazol-5-yl]-(4-hydroxy-piperidin-1-yl)-methanone]
110	7.54	O=C(c1cnc(C#Cc2ccc(F)cc2)s1)N1CCCCC1 [Example 30, [2-(4-Fluoro-phenylethynyl)-thiazol-5-yl]-piperidin-1-yl-methanone]
42	7.92	O=C(c1cnc(C#Cc2cccc(Cl)c2)s1)N1CCC(O)CC1 [Example 38, [2-(3-Chloro-phenylethynyl)-thiazol-5-yl]-(4-hydroxy-piperidin-1-yl)-methanone]
52	6.44	O=C(c1cnc(C#Cc2ccccc2)s1)N1CCN(c2ccccc2)CC1 [Example 41, (2-Phenylethynyl-thiazol-5-yl)-(4-phenyl-piperazin-1-yl)-methanone]
160	6.28	CN1CCN(C(=O)c2cnc(C#Cc3ccccc3)s2)CC1 [Example 42, (4-Methyl-piperazin-1-yl)-(2-phenylethynyl-thiazol-5-yl)-methanone]
79	8.28	O=C(c1cnc(C#Cc2ccccc2)s1)N1CCCCCC1 [Example 58, Azepan-1-yl-(2-phenylethynyl-thiazol-5-yl)-methanone]
140	7.70	CC1CCN(C(=O)c2cnc(C#Cc3ccccc3F)s2)CC1 [Example 63, [2-(2-Fluoro-phenylethynyl)-thiazol-5-yl]-(4-methyl-piperidin-1-yl)-methanone]
100	6.36	O=C(c1cnc(C#Cc2ccccc2Cl)s1)N1CCCCC1 [Example 68, [2-(2-Chloro-phenylethynyl)-thiazol-5-yl]-piperidin-1-yl-methanone]
120	7.00	O=C(c1cnc(C#Cc2ccccc2)s1)N1CCc2[nH]ncc2C1 [Example 77, (2-Phenylethynyl-thiazol-5-yl)-(1,4,6,7-tetrahydro-pyrazolo[4,3-c]pyridin-5-yl)-methanone]
120	6.70	O=C(c1cnc(C#Cc2ccccc2)s1)N1CCC2(CCCO2)CC1 [Example 78]
120	6.54	CC1(O)CCN(C(=O)c2cnc(C#Cc3ccccc3)s2)CC1 [Example 80, (4-Hydroxy-4-methyl-piperidin-1-yl)-(2-phenylethynyl-thiazol-5-yl)-methanone]
150	8.37	O=C(c1cnc(C#Cc2ccccc2)s1)N1CCC(F)(F)CC1 [Example 82, (4,4-Difluoro-piperidin-1-yl)-(2-phenylethynyl-thiazol-5-yl)-methanone]
130	7.19	O=C(c1cnc(C#Cc2ccccc2)s1)N1CCC(C(F)(F)F)CC1 [Example 111, (2-Phenylethynyl-thiazol-5-yl)-(4-trifluoromethyl-piperidin-1-yl)-methanone]
46	6.85	COC1CCCN(C(=O)c2cnc(C#Cc3ccccc3)s2)C1 (centres unmarked) [Example 119, (3-Methoxy-piperidin-1-yl)-(2-phenylethynyl-thiazol-5-yl)-methanone]
140	7.24	COC1CCN(C(=O)c2cnc(C#Cc3ccccc3)s2)CC1 [Example 121, (4-Methoxy-piperidin-1-yl)-(2-phenylethynyl-thiazol-5-yl)-methanone]

maximum modulation (Emax) [%]	pEC50	SMILES
130	6.66	CCOC1CCN(C(=O)c2cnc(C#Cc3ccccc3)s2)CC1 [Example 122, (4-Ethoxy-piperidin-1-yl)-(2-phenylethynyl-thiazol-5-yl)-methanone]
40	6.64	O=C(c1cnc(C#Cc2ccccc2)s1)N1CC(N2CCOCC2)C1 [Example 132, (3-Morpholin-4-yl-azetidin-1-yl)-(2-phenylethynyl-thiazol-5-yl)-methanone]
180	7.70	O=C(c1cnc(C#Cc2ccccc2)s1)N1CCc2sccc2C1 [Example 135, (6,7-Dihydro-4H-thieno[3,2-c]pyridin-5-yl)-(2-phenylethynyl-thiazol-5-yl)-methanone]
38	6.96	CC1(O)CCN(C(=O)c2cnc(C#Cc3ccccc3)s2)C1 (centres unmarked) [Example 137, (3-Hydroxy-3-methyl-pyrrolidin-1-yl)-(2-phenylethynyl-thiazol-5-yl)-methanone]
110	6.96	O=C1CCN(C(=O)c2cnc(C#Cc3ccccc3)s2)C1 [Example 140, 1-(2-Phenylethynyl-thiazole-5-carbonyl)-pyrrolidin-3-one]
	5.40	O=C(c1cnc(C#Cc2ccccc2)s1)N1CCC(N2CCCC2)C1 (centres unmarked) [Example 141, [1,3]Bipyrrolidinyl-1-yl-(2-phenylethynyl-thiazol-5-yl)-methanone]
110	8.74	O=C(c1cnc(C#Cc2ccccc2)s1)N1CC2CCCC2C1 (centres unmarked) [Example 144, (Hexahydro-cyclopenta[c]pyrrol-2-yl)-(2-phenylethynyl-thiazol-5-yl)-methanone]
69	8.09	O=C(c1cnc(C#Cc2ccccc2)s1)N1CC2CCC1C2 (centres unmarked) [Example 146, (2-Aza-bicyclo[2.2.1]hept-2-yl)-(2-phenylethynyl-thiazol-5-yl)-methanone]
100	5.47	O=C(c1cnc(C#Cc2ccccc2)s1)N1CCCC(N2CCOCC2)CC1 (centres unmarked) [Example 148, (4-Morpholin-4-yl-azepan-1-yl)-(2-phenylethynyl-thiazol-5-yl)-methanone]
61	7.14	CC1(O)CCCN(C(=O)c2cnc(C#Cc3ccccc3)s2)CC1 (centres unmarked) [Example 151, (4-Hydroxy-4-methyl-azepan-1-yl)-(2-phenylethynyl-thiazol-5-yl)-methanone]
94	6.85	CN1CCN(C(=O)c2cnc(C#Cc3cccc(Cl)c3)s2)CC1 [Example 158, [2-(3-Chloro-phenylethynyl)-thiazol-5-yl]-(4-methyl-piperazin-1-yl)-methanone]
74	6.29	CCN1CCN(C(=O)c2cnc(C#Cc3cccc(Cl)c3)s2)CC1 [Example 159, [2-(3-Chloro-phenylethynyl)-thiazol-5-yl]-(4-ethyl-piperazin-1-yl)-methanone]
150	5.72	O=C(c1cnc(C#Cc2ccccc2)s1)N1CC2(COC2)C1 [Example 167, (2-Oxa-6-aza-spiro[3.3]hept-6-yl)-(2-phenylethynyl-thiazol-5-yl)-methanone]
95	5.21	O=C(c1cnc(C#Cc2cccnc2)s1)N1CCCCC1 [Example 188, Piperidin-1-yl-(2-pyridin-3-ylethynyl-thiazol-5-yl)-methanone]
78	8.28	O=C(c1cnc(C#Cc2ccsc2)s1)N1CCCCC1 [Example 190, Piperidin-1-yl-(2-thiophen-3-ylethynyl-thiazol-5-yl)-methanone]
64	5.66	COc1ccc(C#Cc2ncc(C(=O)N3CCCCC3)s2)cc1 [Example 192, [2-(4-Methoxy-phenylethynyl)-thiazol-5-yl]-piperidin-1-yl-methasone]
45	7.92	N#Cc1cccc(C#Cc2ncc(C(=O)N3CCCCC3)s2)c1 [Example 196, 3-[5-(Piperidine-1-carbonyl)-thiazol-2-ylethynyl]-benzonitrile]
160	6.29	O=C(c1cnc(C#CC2CCCCC2)s1)N1CCCCC1 [Example 200, (2-Cyclohexylethynyl-thiazol-5-yl)-piperidin-1-yl-methanone]
